Measurements as given in patent US7622469B2, “2,4-diamino-1,3,5-triazine derivatives” (Hamari Chemicals, Ltd., priority 2002, dated 2009).
≈ marks a conversion by molar mass, not a printed value.

Legend:
Test in all cases: Antibacterial activity test (MIC)
Settings in all cases: Mueller-Hinton Broth, 37° C., 20 to 24 hours
[1] = tested on: MRSA 97-115; type: cell-based, methicillin-resistant Staphylococcus aureus
Method: (§1) Regarding compounds obtained in respective Working Examples, in order to investigate antibacterial activity, minimal inhibitory concentration (MIC) was determined according to a standard method of Japanese Society of Chemotherapy.
(§2) As a test bacterium, nine kinds of S. aureus 209PJC, MRSA 97-115, MRSA KM 97-53, MRSA KM97-108, VRE 49, E. coli NIHJ JC-2, P. aeruginosa PAO-1, P. aeruginosa No. 12, P. aeruginosa KM97-5 were used and, as a medium, Mueller-Hinton Broth (DIFCO) was used. One platinum loop of a test bacterium was inoculated into 20 ml of a medium, and static culture was carried out at 37° C. for 16 to 20 hours, and then each bacterium species was diluted with a sterilized physiological saline to 10^5/ml, which was used as a test bacterium solution.
(§3) Then, each compound was dissolved in methanol, subjected to ½ stepwise dilution with a medium to prepare a medium for measuring sensitivity, and each 2 ml was dispensed into a test tube. A compound concentration in a medium was adjusted to 100 μg/ml and its 2^n-fold (n=−10 to 1).
(§4) Numerical values in Tables represent MIC expressed in μg/ml unit.

[2] = tested on: P. aeruginosa PAO-1; type: cell-based
Method: as §1, §2, §3, §4

[3] = tested on: E. coli NIHJ JC-2; type: cell-based
Method: as §1, §2, §3, §4

[4] = tested on: S. aureus 209PJC; type: cell-based
Method: as §1, §2, §3, §4

Row | SMILES | minimal inhibitory concentration (MIC) [1] [µg/mL] | minimal inhibitory concentration (MIC) [2] [µg/mL] | minimal inhibitory concentration (MIC) [3] [µg/mL] | minimal inhibitory concentration (MIC) [4] [µg/mL]
1 | CCCCCCCCCC1N=C(N)NC(Nc2ccc(C(C)(C)C)cc2)=N1.Cl (centres unmarked) [compound 23] | 1.6 | >100 | >100 | 0.8
2 | CCCCCCCCC1N=C(N)N=C(N)N1c1cc(C(C)(C)C)ccc1OC.Cl (centres unmarked) [compound 24] | 1.6 | 50 | 50 | 1.6
3 | CCCCCCCCC1N=C(N)N=C(N)N1c1ccc(OC(F)(F)F)cc1.Cl (centres unmarked) [compound 26] | 6.3 | 50 | 50 | 3.1
4 | CCCCCCCCC1N=C(N)NC(Nc2ccc(OC(F)(F)F)cc2)=N1.Cl (centres unmarked) [compound 27] | 1.6 | >100 | 25 | 1.6
5 | CCCCCCCCCC1N=C(N)N=C(N)N1c1ccc(OC(F)(F)F)cc1.Cl (centres unmarked) [compound 28] | 3.1 | 50 | 25 | 1.6
6 | CCCCCCCCCC1N=C(N)NC(Nc2ccc(OC(F)(F)F)cc2)=N1.Cl (centres unmarked) [compound 29] | 1.6 | >100 | >100 | 0.8
7 | CCCCCCCCCC1N=C(N)N=C(N)N1c1ccc(F)c(F)c1F.Cl (centres unmarked) [compound 30] | 3.1 | 50 | 25 | 1.6
8 | CCCCCCCCCCC1N=C(N)NC(Nc2ccc(F)c(F)c2F)=N1.Cl (centres unmarked) [compound 32] | 1.6 | 100 | 25 | 0.8
9 | CCCCCCCCCCC1N=C(N)N=C(N)N1c1ccc(F)cc1F.Cl (centres unmarked) [compound 33] | 3.1 | 50 | 25 | 1.6
10 | CCCCCCCCCCC1N=C(N)NC(Nc2ccc(F)cc2F)=N1 (centres unmarked) [compound 34] | 1.6 (≈ 4.38 µM) | 100 (≈ 274 µM) | 50 (≈ 137 µM) | 1.6 (≈ 4.38 µM)
11 | CCCCCCCCCCNC1=NC(C)(C)N=C(NCc2ccc(OC)cc2)N1.O=C(O)CC(=O)O [compound 39] | 0.8 | 50 | 25 | 0.4
12 | CCCCCCCCCCNC1=NC(C)(C)N=C(NCc2ccc(OC)cc2)N1.O=C(O)C(=O)O [compound 40] | 0.8 | 25 | 25 | 0.4
13 | CCCCCCCCCCNC1=NC(C)(C)N=C(NCc2ccccc2)N1.O=C(O)C(=O)O [compound 42] | 1.6 | 12.5 | 12.5 | 0.8
14 | CCCCCCCCCNC1=NC(C)(C)N=C(NCc2ccccc2)N1.O=C(O)O [compound 47] | 0.8 | 12.5 | 12.5 | 0.4
15 | CCCCCCCCCCCNC1=NC(C)(C)N=C(NCc2ccccc2)N1.O=C(O)C(=O)O [compound 51] | 0.8 | 100 | 50 | 0.4
16 | CC(=O)O.CCCCCCCCNC1=NC(C)(C)N=C(NCc2ccccc2)N1 [compound 52] | 1.6 | 25 | 12.5 | 0.8
17 | CCCCCCCNC1=NC(CC)(CC)N=C(NCc2ccccc2)N1.Cl [compound 53] | 3.1 | 100 | 50 | 1.6
18 | CC(=O)O.CCCCCCCNC1=NC2(CCCC2)N=C(NCc2ccccc2)N1 [compound 54] | 1.6 | 100 | 50 | 0.8
19 | CCCCCCCCCCNC1=NC(C)(C)N=C(NCCc2ccccc2)N1.O=C(O)CC(=O)O [compound 55] | 0.8 | 50 | 12.5 | 0.4
20 | CC(=O)O.CCCCCCCCNC1=NC(C)(C)N=C(NCCc2ccccc2)N1 [compound 57] | 1.6 | 25 | 25 | 0.8
21 | CC(=O)O.CCCCCCCNC1=NC(C)(C)N=C(NCc2ccc(C)cc2)N1 [compound 59] | 1.6 | 50 | 25 | 0.8
22 | CCCCCCCCCCNC1=NC(C)(C)N=C(NCc2ccc(C(=O)O)cc2)N1.Cl [compound 60] | 6.3 | >100 | >100 | 3.1
23 | CCCCCCCCCNC1=NC(C)(C)N(c2ccccc2)C(N)=N1.Cl [compound 61] | 6.3 | >100 | >100 | 6.3
24 | CC(=O)O.CCCCCCCCCNC1=NC(C)(C)N=C(Nc2ccccc2)N1 [compound 62] | 0.8 | 12.5 | 12.5 | 0.8
25 | CCCCCCCCNC1=NC(C)(C)N(c2cccc3ccccc23)C(N)=N1.Cl [compound 63] | 6.3 | 100 | 100 | 6.3
26 | CCCCCCCCNC1=NC(C)(C)N=C(Nc2cccc3ccccc23)N1 [compound 64] | 0.8 (≈ 2.11 µM) | 25 (≈ 65.9 µM) | 25 (≈ 65.9 µM) | 0.8 (≈ 2.11 µM)
